Data from BindingDB's records for doi:10.1016/j.bmcl.2007.05.099 (Southern Research Institute, 2007).

Experiment: Inhibition of Mycobacterium smegmatis arabinosyl transferase assessed as [14C]arabinofuranose incorporation
In the case of O[C@H]1[C@H](O)[C@@H](CN(CC2CCCCC2)CC2CCCCC2)O[C@@H]1CC[C@H]1O[C@H](CN(CC2CCCCC2)CC2CCCCC2)[C@@H](O)[C@@H]1O [(2R,3S,4S,5R)-2-((bis(cyclohexylmethyl)amino)methyl)-5-(2-((2R,3S,4S,5R)-5-((bis(cyclohexylmethyl)amino)methyl)-3,4-dihydroxy-tetrahydrofuran-2-yl)ethyl)-tetrahydrofuran-3,4-diol], the IC50 is reported as 3.44 mM.
In the case of O[C@H]1[C@H](O)[C@@H](CN(CC2CCCCC2)CC2CCCCC2)O[C@@H]1/C=C/[C@H]1O[C@H](CN(CC2CCCCC2)CC2CCCCC2)[C@@H](O)[C@@H]1O [(2R,3S,4S,5R)-2-((bis(cyclohexylmethyl)amino)methyl)-5-(2-((2R,3S,4S,5R)-5-((bis(cyclohexylmethyl)amino)methyl)-3,4-dihydroxy-tetrahydrofuran-2-yl)vinyl)-tetrahydrofuran-3,4-diol], the IC50 is reported as 4.15 mM.
In the case of O[C@@H]1[C@@H](OC[C@H]2O[C@H](CN(CC3CCCCC3)CC3CCCCC3)[C@@H](O)[C@@H]2O)O[C@H](CN(CC2CCCCC2)CC2CCCCC2)[C@H]1O [(2R,3S,4S,5R)-2-((bis(cyclohexylmethyl)amino)methyl)-5-(((2S,3S,4S,5R)-5-((bis(cyclohexylmethyl)amino)methyl)-3,4-dihydroxy-tetrahydrofuran-2-yloxy)methyl)-tetrahydrofuran-3,4-diol], the IC50 is reported as 2.8 mM.
